The values that follow come from US9750426B2, “System and method for assessing response to chemotherapy using magnetic resonance elastography” (MAYO FOUNDATION FOR MEDICAL EDUCATION AND RESEARCH, priority 2010, dated 2017).

For one assay, the system named is DoHH2 cells. The protocol: The mice were divided into two groups, the first considered the “control” (N=7) and the second the chemotherapy or “chemo” (N=8) group. […] Following an initial scan to determine baseline stiffness, the control group received an injection of normal saline while the chemo group received 4 mg of cyclophosphamide (160 mg/kg). MRE was performed on each mouse using an experimental setup specifically designed to accommodate the mouse and providing the mouse with the requisite anesthesia, via a constant flow of isofluorane during the image acquisition. MRE was performed at different time points (baseline to 4 days post-injection). The experimental setup included a high-frequency electromechanical driver that was developed to produce localized vibrations in the tumor within the mouse at a frequency of 800 Hz. All experiments were performed on a 3.0 T whole-body MRI scanner using a specialized 6-cm diameter transmit-receive RF coil and an EPI based MRE sequence. The MRE imaging parameters included FOV=5 cm; TRITE=1100/99 msec; motion encoding gradient (MEG) frequency=800 Hz; MEG direction=SI, AP, RL; motion encoding sensitivity=3.98 μm/(π radians); BW=83.0 kHz. Volumetric measurements were obtained using both a caliper and measurements from a T2-weighted image data set in order to quantify treatment response. Elastograms (stiffness maps) were calculated using a Multiple Model Direct Inversion (MMDI) algorithm with a directional filter (Butterworth bandpass filter with cutoff frequencies 2-128 waves/FOV).

The structures appear in SMILES notation.

Description for DoHH2 tumor cells: The process 230 starts at process block 232 with either the positioning of the subject in the bore of an MRI system and the coupling of an MRE drive or the positioning of an ex viva sample within an MRE system. […] Thus, the step of positioning the subject for imaging at process block 232 may be initiated within hours to days after the completion of chemotherapy, instead of weeks later, as required in traditional assessment techniques. Once the subject is positioned for MRE imaging, using a high-frequency pulse sequence, such as the example sequence described with respect to FIG. 3, raw MRE data is collected from the subject or sample at process block 234.
After the raw MRE data is collected at process block 234, the data is pre-processed at process block 236. Pre-processing may include minimum discontinuity phase unwrapping, 2-dimensional filtering along, for example, eight evenly spaced directions in the imaging plane and 2-dimensional order-4 Butterworth bandpass filtering with cutoff wave numbers of 1 and 80 waves/FOV. Then, at process block 238, a 2-D phase gradient inversion is used to process the preprocessed data and produce elastograms. The phase gradient inversion may be done, for example, with a 5×5 window. Using the elastograms, at process block 240, regions of interest (ROIs) can be drawn on the tumor where wave penetration and phase signal to noise ratio were visually acceptable. Using the selected ROIs, the mean stiffness values in these regions of interest can then be measured for each slice, at process block 242, and the average of these values can then be reported as a stiffness value of tumors, at process block 244. Using this information, a determination of the response of the tumor to the chemotherapy can be determined.
The tumor cells were maintained in RPMI 1640 medium supplemented with 10% heat-inactivated FCS (Sigma Chemical Co.), 50 U/ml penicillin G, 50 μg/ml gentamicin and 100 μg/ml streptomycin (all from Ufe Technologies, Grand Island, N.Y., USA) with the addition of 10 mM HEPES, 4.5 g/l glucose and 1 mM sodium pyruvate. […]

On to `O=P1(N(CCCl)CCCl)NCCCO1` (stereo not drawn) [cyclophosphamide], for which the “change in stiffness from baseline at day 4” value with DoHH2 cells (Tukey HSD test, p=0.02) is “significant change in stiffness”. Also, the “change in stiffness from baseline at day 3” value with DoHH2 cells (Tukey HSD test, p=0.04) was “significant change in stiffness”. Moreover, the “change in tumor volume” value in the assay on DoHH2 cells (caliper and T2-weighted image measurements, baseline to day 4, p=0.59, no statistically significant change) is “remained the same or decreased slightly”. In addition, in the assay with DoHH2 cells (in vivo MRE 800 Hz, 4 mg (160 mg/kg), day 4, N=8, baseline 9.885±1.74 kPa), the “average shear stiffness at day 4” value is listed as 8.237±1.93 kPa. Moreover, in the assay with DoHH2 cells (in vivo MRE, 4 mg (160 mg/kg), N=8), the “average decrease in shear stiffness from baseline to day 4” value worked out at 1.649 kPa. The “change in stiffness in vivo before three days after injection” value with DoHH2 cells (time points before three days after injection) is recorded as “No changes in stiffness were observed”. Further, in the assay with DoHH2 tumor cells (CB17/SCID mice, subcutaneous DoHH2 tumors, 160 mg/kg (4 mg) intraperitoneally, tumors excised four hours later, MRE ex vivo, N=5), the “tumor stiffness, Mean” value is given as 21.82 kPa. In the assay on DoHH2 tumor cells (ex vivo mouse tumor studies, 4 hours after drug administration), the “stiffness change 4 hours after drug administration (ex vivo)” value was “stiffness increased”. Also, in the assay on DoHH2 tumor cells (one-sided T-test between chemo and saline groups, p value 0.034, 4 hours after dosing), the “change in tumor stiffness measured by MRE versus saline” value is “significant change in the tumor stiffness”.
